Results: PubChem BioAssay AID1963436 (Molecular Pharmacology Branch, DTP, NCI, 2024)
pIC50: −log10 of the molar value.

System: OVCAR-5 complex spheroid (HUVEC/MSC), viability % T/C
Assay: Anticancer human tumor OVCAR-5 cell line growth inhibition [Asc];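 also: spheroids exposed to agents for 7 days before readout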;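 as to viability, T/C: 100% = DMSO vehicle-treated wells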
Settings: for pIC50: curve of first compound; for viability, T/C: stronger effect = lower value
Summary of the method: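 Concentration series start at each agent's clinical Cmax, or at 10 microM when none is established, and drop in half-log steps; agents are applied alone or together to complex spheroids built with HUVEC and hMSC.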

[1] = second compound 0.1 µM, first compound 0.0316 µM
[2] = second compound 0.1 µM, first compound 0.1 µM
[3] = second compound 0.1 µM, first compound 0.316 µM
[4] = second compound 0.1 µM, first compound 1 µM
[5] = second compound 0.316 µM, first compound 0.0316 µM
[6] = second compound 0.316 µM, first compound 0.1 µM
[7] = second compound 0.316 µM, first compound 0.316 µM
[8] = second compound 0.316 µM, first compound 1 µM
[9] = second compound 1 µM, first compound 0.0316 µM
[10] = second compound 1 µM, first compound 0.1 µM
[11] = second compound 1 µM, first compound 0.316 µM
[12] = second compound 1 µM, first compound 1 µM
[13] = second compound 3.16 µM, first compound 0.0316 µM
[14] = second compound 3.16 µM, first compound 0.1 µM
[15] = second compound 3.16 µM, first compound 0.316 µM
[16] = second compound 3.16 µM, first compound 1 µM
[17] = second compound 10 µM, first compound 0.0316 µM
[18] = second compound 10 µM, first compound 0.1 µM
[19] = second compound 10 µM, first compound 0.316 µM
[20] = second compound 10 µM, first compound 1 µM

Structure (SMILES): C#Cc1c(F)ccc2cc(O)cc(-c3ncc4c(N5CC6CCC(C5)N6)nc(OCC56CCCN5CC(F)C6)nc4c3F)c12 (stereo not given) + Cc1c(S(C)(=O)=O)c(-c2cc(F)cc(N3CCN(c4ccc(NS(=O)(=O)c5ccc(NC(CCN6CCC(C(=O)OCCCP(=O)(O)O)CC6)CSc6ccccc6)c(S(=O)(=O)C(F)(F)F)c5)cc4)CC3)c2)c(-c2ccc(Cl)cc2)n1C(C)C
- pIC50 (second compound 0.1 µM): 5.27
- pIC50 (second compound 0.316 µM): 5.35
- pIC50 (second compound 1 µM): 5.43
- pIC50 (second compound 3.16 µM): 5.55
- pIC50 (second compound 10 µM): 5.43
- viability, T/C [1]: 96.7%
- viability, T/C [2]: 107%
- viability, T/C [3]: 102%
- viability, T/C [4]: 78.7%
- viability, T/C (second compound 0.1 µM, first compound 3.16 µM): 69.3%
- viability, T/C (second compound 0.1 µM, first compound 10 µM): 30.3%
- viability, T/C [5]: 91.8%
- viability, T/C [6]: 98.2%
- viability, T/C [7]: 87.2%
- viability, T/C [8]: 80.1%
- viability, T/C (second compound 0.316 µM, first compound 3.16 µM): 61.1%
- viability, T/C (second compound 0.316 µM, first compound 10 µM): 24.5%
- viability, T/C [9]: 89.7%
- viability, T/C [10]: 107%
- viability, T/C [11]: 90.1%
- viability, T/C [12]: 75.9%
- viability, T/C (second compound 1 µM, first compound 3.16 µM): 56.3%
- viability, T/C (second compound 1 µM, first compound 10 µM): 21.7%
- viability, T/C [13]: 84.9%
- viability, T/C [14]: 99.9%
- viability, T/C [15]: 96.1%
- viability, T/C [16]: 69%
- viability, T/C (second compound 3.16 µM, first compound 3.16 µM): 49.8%
- viability, T/C (second compound 3.16 µM, first compound 10 µM): 12.9%
- viability, T/C [17]: 133%
- viability, T/C [18]: 116%
- viability, T/C [19]: 118%
- viability, T/C [20]: 88.5%
- viability, T/C (second compound 10 µM, first compound 3.16 µM): 56.6%
- viability, T/C (second compound 10 µM, first compound 10 µM): 12.7%

Structure (SMILES): CNC(C)C(=O)NC1CN(S(=O)(=O)c2cccc(S(=O)(=O)N3CCC4CCC(C(=O)NC(c5ccccc5)c5ccccc5)N4C(=O)C(NC(=O)C(C)NC)C3)c2)CCC2CCC(C(=O)NC(c3ccccc3)c3ccccc3)N2C1=O (stereo not given) + Cc1c(S(C)(=O)=O)c(-c2cc(F)cc(N3CCN(c4ccc(NS(=O)(=O)c5ccc(NC(CCN6CCC(C(=O)OCCCP(=O)(O)O)CC6)CSc6ccccc6)c(S(=O)(=O)C(F)(F)F)c5)cc4)CC3)c2)c(-c2ccc(Cl)cc2)n1C(C)C
- pIC50 (second compound 0.1 µM): < 6.00
- pIC50 (second compound 0.316 µM): < 6.00
- pIC50 (second compound 1 µM): < 6.00
- pIC50 (second compound 3.16 µM): < 6.00
- pIC50 (second compound 10 µM): < 6.00
- viability, T/C (second compound 0.1 µM, first compound 0.00316 µM): 97.7%
- viability, T/C (second compound 0.1 µM, first compound 0.01 µM): 91.1%
- viability, T/C [1]: 83.2%
- viability, T/C [2]: 79.3%
- viability, T/C [3]: 85.2%
- viability, T/C [4]: 76.1%
- viability, T/C (second compound 0.316 µM, first compound 0.00316 µM): 96.2%
- viability, T/C (second compound 0.316 µM, first compound 0.01 µM): 87.7%
- viability, T/C [5]: 78%
- viability, T/C [6]: 77.8%
- viability, T/C [7]: 74.8%
- viability, T/C [8]: 81%
- viability, T/C (second compound 1 µM, first compound 0.00316 µM): 90.7%
- viability, T/C (second compound 1 µM, first compound 0.01 µM): 86.9%
- viability, T/C [9]: 78.8%
- viability, T/C [10]: 75.2%
- viability, T/C [11]: 67.1%
- viability, T/C [12]: 75%
- viability, T/C (second compound 3.16 µM, first compound 0.00316 µM): 89.1%
- viability, T/C (second compound 3.16 µM, first compound 0.01 µM): 94.3%
- viability, T/C [13]: 83%
- viability, T/C [14]: 68.1%
- viability, T/C [15]: 71.5%
- viability, T/C [16]: 81.6%
- viability, T/C (second compound 10 µM, first compound 0.00316 µM): 119%
- viability, T/C (second compound 10 µM, first compound 0.01 µM): 130%
- viability, T/C [17]: 121%
- viability, T/C [18]: 99.8%
- viability, T/C [19]: 108%
- viability, T/C [20]: 96.8%

Structure (SMILES): Cc1nc(N2CCC3(CC2)COC(C)C3N)c(CO)nc1Sc1ccnc(N)c1Cl (stereo not given) + Cc1c(S(C)(=O)=O)c(-c2cc(F)cc(N3CCN(c4ccc(NS(=O)(=O)c5ccc(NC(CCN6CCC(C(=O)OCCCP(=O)(O)O)CC6)CSc6ccccc6)c(S(=O)(=O)C(F)(F)F)c5)cc4)CC3)c2)c(-c2ccc(Cl)cc2)n1C(C)C
- pIC50 (second compound 0.1 µM): 5.72
- pIC50 (second compound 0.316 µM): 5.95
- pIC50 (second compound 1 µM): 5.92
- pIC50 (second compound 3.16 µM): 6.11
- pIC50 (second compound 10 µM): 5.55
- viability, T/C (second compound 0.1 µM, first compound 0.00949 µM): 96.4%
- viability, T/C (second compound 0.1 µM, first compound 0.03 µM): 83.9%
- viability, T/C (second compound 0.1 µM, first compound 0.0949 µM): 81.7%
- viability, T/C (second compound 0.1 µM, first compound 0.3 µM): 62.8%
- viability, T/C (second compound 0.1 µM, first compound 0.949 µM): 55.7%
- viability, T/C (second compound 0.1 µM, first compound 3 µM): 46.9%
- viability, T/C (second compound 0.316 µM, first compound 0.00949 µM): 95.8%
- viability, T/C (second compound 0.316 µM, first compound 0.03 µM): 85.1%
- viability, T/C (second compound 0.316 µM, first compound 0.0949 µM): 73.9%
- viability, T/C (second compound 0.316 µM, first compound 0.3 µM): 55.6%
- viability, T/C (second compound 0.316 µM, first compound 0.949 µM): 55.2%
- viability, T/C (second compound 0.316 µM, first compound 3 µM): 42.9%
- viability, T/C (second compound 1 µM, first compound 0.00949 µM): 78.1%
- viability, T/C (second compound 1 µM, first compound 0.03 µM): 76.9%
- viability, T/C (second compound 1 µM, first compound 0.0949 µM): 72.4%
- viability, T/C (second compound 1 µM, first compound 0.3 µM): 68.4%
- viability, T/C (second compound 1 µM, first compound 0.949 µM): 51.1%
- viability, T/C (second compound 1 µM, first compound 3 µM): 42.6%
- viability, T/C (second compound 3.16 µM, first compound 0.00949 µM): 87.7%
- viability, T/C (second compound 3.16 µM, first compound 0.03 µM): 85%
- viability, T/C (second compound 3.16 µM, first compound 0.0949 µM): 72.5%
- viability, T/C (second compound 3.16 µM, first compound 0.3 µM): 59.9%
- viability, T/C (second compound 3.16 µM, first compound 0.949 µM): 45.6%
- viability, T/C (second compound 3.16 µM, first compound 3 µM): 46.9%
- viability, T/C (second compound 10 µM, first compound 0.00949 µM): 105%
- viability, T/C (second compound 10 µM, first compound 0.03 µM): 94%
- viability, T/C (second compound 10 µM, first compound 0.0949 µM): 88.6%
- viability, T/C (second compound 10 µM, first compound 0.3 µM): 87.3%
- viability, T/C (second compound 10 µM, first compound 0.949 µM): 64.8%
- viability, T/C (second compound 10 µM, first compound 3 µM): 49%
